Measured values published in patent US6936625B2 (Hanmi Pharm. Co., Ltd., priority 2001, dated 2005).
Values after ≈ are worked out from the molar mass of the structure shown. Where two headings read alike, the source gives them in different places.

Experiments:
[1] = system: Quail; details: oral; cited from earlier work
[2] = Stability test (storage at 55° C., about 50% relative humidity); format: physicochemical; set-up: remaining amount of active amlodipine: unit not given here; details: relative humidity about 50%; for time-dependent stability (in words): up to 4 weeks
Experimental: Specifically, each compound was stored at 55° C., a relative humidity of about 50%, and after 1, 2, 3 and 4 weeks, the remaining amount of active amlodipine was determined with a liquid chromatography.

[3] = Non-hygroscopicity test (moisture content); format: physicochemical; details: for moisture content, Condition 2: 30° C. under 95% relative humidity for 3 days; for moisture content, Condition 1: 37° C. under 75% relative humidity for 24 hours; for Initial moisture: before exposure
Experimental: When a solid form of a drug is to be formulated, it is important that the drug is not hygroscopic. Accordingly, the hygroscopicity of the inventive amlodipine camsylate was measured and compared with that of amlodipine besylate.
Each compound was exposed to two conditions: 37° C. under 75% relative humidity for 24 hours (condition 1) and 30° C. under 95% relative humidity for 3 days (condition 2), and then, the moisture content of each compound was measured according to the method described in Korean Patent Publication No. 1995-7228.

[4] = Solubility test (saturation in distilled water, liquid chromatography); format: physicochemical; details: for Solubility: distilled water to saturation, based on the amount of amlodipine
Experimental: The measurement was performed according to the procedure described in the Korean Pharmacopoeia (Korean Ministry of Health and Welfare, General principle of medical supplies, Vol. 1, Clause 29, the 7th revision) which comprises the steps of dissolving each compound in distilled water to saturation, analyzing the saturated solution with liquid chromatography, and measuring the dissolved amount of each compound based on the amount of amlodipine.

[5] = system: Cat; details: cutaneous; cited from earlier work
[6] = system: Wild-birds; details: oral; cited from earlier work
[7] = system: Rat; details: oral; cited from earlier work
[8] = system: Mouse; details: in vivo, sc; cited from earlier work
[9] = in a solution; cited from earlier work

Row | Molecule | moisture content, Condition 2 [3] [%] | moisture content, Condition 1 [3] [%] | Initial moisture [3] [%] | remaining amount of active amlodipine ([2]; 1 week) | remaining amount of active amlodipine ([2]; 2 weeks) | remaining amount of active amlodipine ([2]; 3 weeks) | remaining amount of active amlodipine ([2]; 4 weeks) | remaining amount of active amlodipine ([2]; Initial) | further results
1 | CC1(C)C2CCC1(CS(=O)(=O)O)C(=O)C2 (racemic) [(±)-10-Camphor sulfonic aicd, (±)-10-camphor sulfonic acid] | – | – | – | – | – | – | – | – | LD50 [1]: LD50 > 316 mg/kg
2 | CCOC(=O)C1=C(COCCN)NC(C)=C(C(=O)OC)C1c1ccccc1Cl (stereo not drawn) [Amlodipine camsylate, amlodipine camsylate] | – | – | – | – | – | – | – | – | time-dependent stability (in words) [2]: stable during the 4 weeks period
3 | CCOC(=O)C1=C(COCCN)NC(C)=C(C(=O)OC)C1c1ccccc1Cl (stereo not drawn) [Amlodipine besylate, amlodipine benzenesulfonate, reference compound] | 0.15 | 0.05 | 0.05 | 0.992 | 0.996 | 0.993 | 0.993 | 1 | time-dependent stability (in words) [2]: slight but significant degradation after 1 week; Solubility ([4]; distilled water, water, thermodynamic from solid, read-out: Solubility): 1400 µg/mL
4 | O=S(=O)(O)c1ccccc1 [Benzene sulfonic acid] | – | – | – | – | – | – | – | – | LDLO [5]: LDLO 10 g/kg; LD50 [6]: LD50 75 mg/kg; LD50 [7]: LD50 890 μl/kg
5 | CC1(C)C2CC[C@@]1(CS(=O)(=O)O)C(=O)C2 [(1S)-(+)-10-Camphor sulfonic acid, (1S)-(+)-10-camphor sulfonic acid] | – | – | – | – | – | – | – | – | LD50 [8]: LD50 2502 mg/kg
6 | CCOC(=O)C1=C(COCCN)NC(C)=C(C(=O)OC)C1c1ccccc1Cl [Amlodipine camsylate of Example 1 (S), Amlodipine Camsylate] | 0.15 | 0.05 | 0.05 | 1 | 0.998 | 1 | 1 | 1 | Solubility [4]: 1225 µg/mL (≈ 3 mM); Saturation pH ([4]; saturated solution in distilled water): 6.0
7 | amlodipine maleate | – | – | – | – | – | – | – | – | stability in solution (in words) [9]: degrades in a solution within several weeks
8 | CCOC(=O)C1=C(COCCN)NC(C)=C(C(=O)OC)C1c1ccccc1Cl [Amlodipine camsylate of Example 2 (R), Amlodipine Camsylate] | 0.15 | 0.05 | 0.05 | 1 | 1 | 1.002 | 1 | 1 | Solubility [4]: 1250 µg/mL (≈ 3.06 mM)
